Reference: publication PMC10199020 (Nature Communications, 2023)
Bridge positions count the residues as written; N and C are the ends. Square brackets hold non-standard residues; d marks the D form. Peptide text beside a SMILES is read from it. * marks the point of attachment. 5TAMRA = CN(C)c1ccc2c(c1)Oc1cc(N(C)C)ccc1C21OC(=O)c2cc(C(=O)*)ccc21; 2Nal = N[C@@H](Cc1ccc2ccccc2c1)C(=O)O; Pen = CC(C)(S)[C@H](N)C(=O)O; Aib = CC(C)(N)C(=O)O

Experiments:
NL-IL12Rβ1 with IL23R = biological target: T1, NL-IL12Rβ1 with IL23R (Homo sapiens, UniProt Q5VWK5); assay: P630-TMR NanoBRET binding assay, NL-IL12Rβ1 with IL23R; conditions: for BRET ratio, Specific (Mean) / BRET ratio, Non-specific (Mean): Fig. 2e; for BRET ratio, Non-specific (Mean): with 10 μM P630; for % maximum BRET ratio (Mean): Figure 2 sheet Panel g; for % maximum BRET ratio (Mean) / BRET ratio with non-specific binding subtracted (Mean): IL23R + NL-IL12RB1; for BRET ratio with non-specific binding subtracted (Mean): Figure 2 sheet Panels f, h
T1 construct: untagged full-length IL23R could be measured in the membranes of living cells; expressed in transfected cells; host or cells: HEK293T, transient transfection
Text: (§1) A standard curve was used to predict the expression level of NanoLuc labelled receptor in each experiment (Supplementary Fig. 1).
(§2) Fig. 2 Creation and characterisation of a fluorescent cyclic peptide probe for IL23R. […] Data are normally mean ± SEM from five independent experiments. Details on absolute number of data points included for each concentration are provided in the associated Source Data file. In each individual saturation experiment triplicate determinations were normally made for total binding and duplicate measurements were made for non-specific binding.
(§3) Media was removed from white 96-well microplates containing transfected cells and replaced with fluoroprobe in the presence or absence of antagonist in 50 μL Hanks Balanced Salt Solution (HBSS) with 1 mg/mL BSA (Merck). After a 1-hour incubation at 37 °C without CO2, 5 μL of HBSS containing 77 μM furimizine was added to each well (final concentration 7 μM), the plate incubated for 5-minutes and the BRET signal measured using a PheraStar FS plate reader (BMG Labtech; data acquisition software version 5.41; MARS analysis software version 3.32) with a 450 ± 30 nm and >550 nm long pass filters.
(§4) Ligand binding data were fitted with the equation:2 BRETratio=Bmax[A]/([A]+KD)+(BA+C). Where ‘Bmax’ is the maximum specific binding BRET signal, ‘[A]’ is fluorescent probe concentration, ‘B’ is the non-specific binding component’s slope and ‘C’ is the Y intercept.
(§5) Specific binding data was generated by subtracting the BRET values gained in the presence of an excess of unlabelled probe from the BRET ratios gained in the absence of unlabelled probe. Specific binding data were fit using the equation:3 Y=Bmax[B]/(B+KD) where ‘Bmax’ is the maximum specific binding signal of the curve and ‘[B]’ is the concentration of fluorescent probe.

NL-IL23R with IL12Rβ1 = biological target: T2, NL-IL23R with IL12Rβ1 (Homo sapiens, UniProt P42701+Q5VWK5); assay: P630-TMR NanoBRET binding assay, NL-IL23R with IL12Rβ1; conditions: Fig. 2d, NL-IL23R with IL12Rβ1; for BRET ratio, Non-specific (Mean): with 10 μM P630
T2 construct: expressed in transfected cells; host or cells: HEK293T (ATCC CRL-3216), transient transfection
Text: as §1, §2, §3, §4, §5

[1] = NL-IL12Rβ1 and IL23R, P630-TMR 0.457247 nM
[2] = NL-IL12Rβ1 and IL23R, P630-TMR 1.37174 nM
[3] = NL-IL12Rβ1 and IL23R, P630-TMR 4.11523 nM
[4] = NL-IL12Rβ1 and IL23R, P630-TMR 12.3457 nM
[5] = NL-IL12Rβ1 and IL23R, P630-TMR 37.037 nM
[6] = NL-IL12Rβ1 and IL23R, P630-TMR 111.111 nM
[7] = NL-IL12Rβ1 and IL23R, P630-TMR 1000 nM
[8] = NL-IL12Rβ1 and IL23R, P630-TMR 3000 nM

T2 sequence (Q5VWK5 24-629, other chains not shown): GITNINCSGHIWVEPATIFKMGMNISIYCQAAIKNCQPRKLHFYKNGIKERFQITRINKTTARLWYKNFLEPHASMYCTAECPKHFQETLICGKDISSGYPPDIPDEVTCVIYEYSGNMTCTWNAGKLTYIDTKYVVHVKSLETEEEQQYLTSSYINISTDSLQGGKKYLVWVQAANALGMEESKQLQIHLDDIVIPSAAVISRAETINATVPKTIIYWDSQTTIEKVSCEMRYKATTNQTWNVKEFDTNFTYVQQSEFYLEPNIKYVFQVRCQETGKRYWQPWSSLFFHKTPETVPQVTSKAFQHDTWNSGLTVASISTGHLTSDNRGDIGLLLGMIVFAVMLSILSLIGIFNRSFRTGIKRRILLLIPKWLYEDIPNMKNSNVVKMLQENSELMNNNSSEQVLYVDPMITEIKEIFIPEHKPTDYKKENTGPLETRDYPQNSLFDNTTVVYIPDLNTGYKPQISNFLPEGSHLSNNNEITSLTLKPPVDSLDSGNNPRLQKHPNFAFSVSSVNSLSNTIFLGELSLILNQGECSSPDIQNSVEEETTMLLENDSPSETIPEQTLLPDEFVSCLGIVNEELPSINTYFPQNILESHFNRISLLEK
T1 sequence (Q5VWK5 24-629, other chains not shown): as above

Compound: COc1ccc(C[C@H](NC(=O)[C@H]2NC(=O)[C@H](CCC(N)=O)NC(=O)[C@H](Cc3c[nH]c4ccccc34)NC(=O)[C@H]([C@@H](C)O)NC(=O)[C@H](CC(N)=O)NC(=O)[C@@H](NC(C)=O)C(C)(C)SSC2(C)C)C(=O)N[C@@H](Cc2ccc3ccccc3c2)C(=O)NC(C)(C)C(=O)N[C@@H](CCC(=O)O)C(=O)N[C@@H](CC(N)=O)C(=O)N[C@@H](CC(N)=O)C(=O)N[C@@H](CCCCNC(=O)c2ccc3c(c2)C(=O)OC32c3ccc(N(C)C)cc3Oc3cc(N(C)C)ccc32)C(N)=O)cc1 [P630-TMR] (Ac-[Pen]NTWQ[Pen]Y(Me)[2Nal][Aib]ENNK(5TAMRA)-NH2; disulfide 1-6)
- BRET ratio, Specific (Mean) (NL-IL12Rβ1 with IL23R; [1]): 0.2494
- BRET ratio, Specific (Mean) (NL-IL12Rβ1 with IL23R; [2]): 0.2506
- BRET ratio, Specific (Mean) (NL-IL12Rβ1 with IL23R; [3]): 0.2544
- BRET ratio, Specific (Mean) (NL-IL12Rβ1 with IL23R; [4]): 0.2565
- BRET ratio, Specific (Mean) (NL-IL12Rβ1 with IL23R; [5]): 0.2604
- BRET ratio, Specific (Mean) (NL-IL12Rβ1 with IL23R; [6]): 0.269
- BRET ratio, Specific (Mean) (NL-IL12Rβ1 with IL23R; [7]): 0.2823
- BRET ratio, Specific (Mean) (NL-IL12Rβ1 with IL23R; [8]): 0.2959
- BRET ratio, Non-specific (Mean) (NL-IL12Rβ1 with IL23R; [1]): 0.245
- BRET ratio, Non-specific (Mean) (NL-IL12Rβ1 with IL23R; [2]): 0.2494
- BRET ratio, Non-specific (Mean) (NL-IL12Rβ1 with IL23R; [3]): 0.2477
- BRET ratio, Non-specific (Mean) (NL-IL12Rβ1 with IL23R; [4]): 0.2499
- BRET ratio, Non-specific (Mean) (NL-IL12Rβ1 with IL23R; [5]): 0.2505
- BRET ratio, Non-specific (Mean) (NL-IL12Rβ1 with IL23R; [6]): 0.2497
- BRET ratio, Non-specific (Mean) (NL-IL12Rβ1 with IL23R; [7]): 0.2599
- BRET ratio, Non-specific (Mean) (NL-IL12Rβ1 with IL23R; [8]): 0.2729
- BRET ratio, Non-specific (Mean) (NL-IL12Rβ1 with IL23R; NL-IL12Rβ1 and IL23R, P630-TMR […]): 0.2519
- % maximum BRET ratio (Mean) (NL-IL12Rβ1 with IL23R; P630-TMR 0.457247 nM): 20.2943%
- % maximum BRET ratio (Mean) (NL-IL12Rβ1 with IL23R; P630-TMR 1.37174 nM): 3.037%
- % maximum BRET ratio (Mean) (NL-IL12Rβ1 with IL23R; P630-TMR 4.11523 nM): 30.2039%
- % maximum BRET ratio (Mean) (NL-IL12Rβ1 with IL23R; P630-TMR 12.3457 nM): 28.4128%
- % maximum BRET ratio (Mean) (NL-IL12Rβ1 with IL23R; P630-TMR 37.037 nM): 44.6085%
- % maximum BRET ratio (Mean) (NL-IL12Rβ1 with IL23R; P630-TMR 111.111 nM): 87.2944%
- % maximum BRET ratio (Mean) (NL-IL12Rβ1 with IL23R; P630-TMR 1000 nM): 109.773%
- % maximum BRET ratio (Mean) (NL-IL12Rβ1 with IL23R; P630-TMR 3000 nM): 100.001%
- BRET ratio with non-specific binding subtracted (Mean) (NL-IL12Rβ1 with IL23R; P630-TMR 0.457247 nM): 0.00447
- BRET ratio with non-specific binding subtracted (Mean) (NL-IL12Rβ1 with IL23R; P630-TMR 1.37174 nM): 0.001281
- BRET ratio with non-specific binding subtracted (Mean) (NL-IL12Rβ1 with IL23R; P630-TMR 4.11523 nM): 0.006719
- BRET ratio with non-specific binding subtracted (Mean) (NL-IL12Rβ1 with IL23R; P630-TMR 12.3457 nM): 0.00665
- BRET ratio with non-specific binding subtracted (Mean) (NL-IL12Rβ1 with IL23R; P630-TMR 37.037 nM): 0.009959
- BRET ratio with non-specific binding subtracted (Mean) (NL-IL12Rβ1 with IL23R; P630-TMR 111.111 nM): 0.01927
- BRET ratio with non-specific binding subtracted (Mean) (NL-IL12Rβ1 with IL23R; P630-TMR 1000 nM): 0.02313
- BRET ratio with non-specific binding subtracted (Mean) (NL-IL12Rβ1 with IL23R; P630-TMR 3000 nM): 0.02294
- Kd (NL-IL12Rβ1 with IL23R; NL-IL12Rβ1 and IL23R, mean ± SEM): 0.0552 ± 0.0105 µM
- Bmax, fold lower than NL-IL23R with IL12Rβ1 (NL-IL12Rβ1 with IL23R; NL-IL12Rβ1 with IL23R): 42.53 fold
- BRET ratio, Specific (Mean) (NL-IL23R with IL12Rβ1; P630-TMR 0.457247 nM): 0.2512
- BRET ratio, Specific (Mean) (NL-IL23R with IL12Rβ1; P630-TMR 1.37174 nM): 0.271
- BRET ratio, Specific (Mean) (NL-IL23R with IL12Rβ1; P630-TMR 4.11523 nM): 0.315
- BRET ratio, Specific (Mean) (NL-IL23R with IL12Rβ1; P630-TMR 12.3457 nM): 0.4472
- BRET ratio, Specific (Mean) (NL-IL23R with IL12Rβ1; P630-TMR 37.037 nM): 0.6615
- BRET ratio, Specific (Mean) (NL-IL23R with IL12Rβ1; P630-TMR 111.111 nM): 1.003
- BRET ratio, Specific (Mean) (NL-IL23R with IL12Rβ1; P630-TMR 1000 nM): 1.323
- BRET ratio, Specific (Mean) (NL-IL23R with IL12Rβ1; P630-TMR 3000 nM): 1.6368
- BRET ratio, Non-specific (Mean) (NL-IL23R with IL12Rβ1; P630-TMR 0.457247 nM): 0.2426
- BRET ratio, Non-specific (Mean) (NL-IL23R with IL12Rβ1; P630-TMR 1.37174 nM): 0.2389
- BRET ratio, Non-specific (Mean) (NL-IL23R with IL12Rβ1; P630-TMR 4.11523 nM): 0.241
- BRET ratio, Non-specific (Mean) (NL-IL23R with IL12Rβ1; P630-TMR 12.3457 nM): 0.2439
- BRET ratio, Non-specific (Mean) (NL-IL23R with IL12Rβ1; P630-TMR 37.037 nM): 0.2477
